Reference: the NIST ThermoML archive (doi:10.1016/j.jct.2018.06.015)

Assay: xn = mol fraction of the nth substance listed
Settings: 100 kPa, Liquid; for speed of sound: Frequency=3 MHz, Single path-length method; for mass density: Vibrating tube method

CCCCOCCOCCO [3,6-dioxa-1-decanol] + CCCCCCCCCCO
Settings | mass density, 293.15 K [kg/m3] | mass density, 298.15 K [kg/m3] | mass density, 303.15 K [kg/m3] | mass density, 308.15 K [kg/m3] | mass density, 313.15 K [kg/m3] | speed of sound, 293.15 K [m/s] | speed of sound, 298.15 K [m/s] | speed of sound, 303.15 K [m/s] | speed of sound, 308.15 K [m/s] | speed of sound, 313.15 K [m/s]
x1 = 0.0523 | 835.331 | 831.923 | 828.507 | 825.069 | 821.625 | 1393.8 | 1376.5 | 1359.8 | 1343.3 | 1326.4
x1 = 0.102 | 840.692 | 837.244 | 833.786 | 830.318 | 826.838 | 1391.2 | 1374.1 | 1357.4 | 1340.8 | 1324
x1 = 0.1579 | 846.823 | 843.333 | 839.841 | 836.332 | 832.81 | 1388.7 | 1371.5 | 1354.9 | 1338.3 | 1321.7
x1 = 0.207 | 852.21 | 848.697 | 845.172 | 841.631 | 838.082 | 1386.6 | 1369.3 | 1352.7 | 1336 | 1319.7
x1 = 0.2513 | 857.155 | 853.609 | 850.057 | 846.484 | 842.906 | 1385 | 1367.4 | 1350.8 | 1334.1 | 1318
x1 = 0.3099 | 863.89 | 860.297 | 856.695 | 853.085 | 849.466 | 1382.7 | 1365.1 | 1348.6 | 1331.8 | 1315.9
x1 = 0.4046 | 875.017 | 871.358 | 867.688 | 864.011 | 860.317 | 1379.6 | 1362.3 | 1345.7 | 1328.8 | 1312.8
x1 = 0.5087 | 887.59 | 883.854 | 880.111 | 876.354 | 872.591 | 1376.9 | 1359.7 | 1343.1 | 1326 | 1310.2
x1 = 0.6073 | 899.873 | 896.063 | 892.242 | 888.409 | 884.574 | 1374.5 | 1358.4 | 1341.8 | 1324.7 | 1308.1
x1 = 0.7051 | 912.356 | 908.464 | 904.568 | 900.658 | 896.746 | 1373.9 | 1357.8 | 1341.3 | 1323.9 | 1307.1
x1 = 0.7952 | 924.132 | 920.17 | 916.202 | 912.22 | 908.239 | 1373.4 | 1357.9 | 1341.4 | 1323.9 | 1306.6
x1 = 0.8515 | 931.68 | 927.667 | 923.651 | 919.614 | 915.585 | 1373.4 | 1358.6 | 1342.2 | 1324.6 | 1306.5
x1 = 0.9006 | 938.376 | 934.318 | 930.252 | 926.171 | 922.107 | 1374.5 | 1359.6 | 1343.1 | 1325.4 | 1307.4
x1 = 0.9379 | 943.482 | 939.393 | 935.294 | 931.189 | 927.082 | 1374.9 | 1360.6 | 1344.1 | 1326.3 | 1307.7
x1 = 1 | 952.288 | 948.1 | 943.909 | 939.704 | 935.503 | 1378.2 | 1361.3 | 1344.5 | 1326.4 | 1307.7
